Columns and labels:
Test in all cases: normalised number of viable cells after treatment (fraction of control); higher = more viable cells (less drug effect)
P8 Relapse = test system: P8 Relapse (T-ALL xenograft cells from relapse)
Description: (§1)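 T-ALL PDX-derived cells (initial diagnosis or relapse samples of individual patients) co-cultured on hTERT-immortalized bone marrow MSCs in 384-well plates were treated with Cytarabine, Venetoclax, S-63845, A1331852 or FX1 (0.1 nM to 10,000 nM) for 72 h.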

P1 Initial = test system: P1 Initial (T-ALL xenograft cells from diagnosis)
Description: as §1

P6 Relapse = test system: P6 Relapse (T-ALL xenograft cells from relapse)
Description: as §1

P10 Relapse = test system: P10 Relapse (T-ALL xenograft cells from relapse)
Description: as §1

P12 Relapse = test system: P12 Relapse (T-ALL xenograft cells from relapse)
Description: as §1

P12 Initial = test system: P12 Initial (T-ALL xenograft cells from diagnosis)
Description: as §1

P1 Relapse = test system: P1 Relapse (T-ALL xenograft cells from relapse)
Description: as §1

P10 Initial = test system: P10 Initial (T-ALL xenograft cells from diagnosis)
Description: as §1

P2 Initial = test system: P2 Initial (T-ALL xenograft cells from diagnosis)
Description: as §1

P8 Initial = test system: P8 Initial (T-ALL xenograft cells from diagnosis)
Description: as §1

P2 Relapse = test system: P2 Relapse (T-ALL xenograft cells from relapse)
Description: as §1

P6 Initial = test system: P6 Initial (T-ALL xenograft cells from diagnosis)
Description: as §1

Cc1c(-c2c(-c3ccc(F)o3)sc3ncnc(O[C@H](Cc4ccccc4OCc4ccnn4CC(F)(F)F)C(=O)O)c23)ccc(OCCN2CCN(C)CC2)c1Cl
normalised number of viable cells
Settings | 0.125 nM | 0.13 nM | 1 nM | 1.25 nM | 12.5 nM | 31.25 nM | 100 nM | 625 nM | 1250 nM | 10000 nM
P1 Initial | 1.16 | – | 1.05 | – | 0.838 | – | 0.231 | – | 0.054 | 0.0485
P1 Relapse | – | 1.26 | – | 1.15 | – | 0.987 | – | 0.131 | – | 0.039
P2 Initial | – | 0.99 | – | 0.918 | – | 0.86 | – | 0.197 | – | 0.129
P2 Relapse | – | 1.05 | – | 1.04 | – | 0.878 | – | 0.7035 | – | 0.068
P6 Initial | – | 1.02 | – | 1.08 | – | 0.638 | – | 0.0605 | – | 0.022
P6 Relapse | – | 1.07 | – | 0.884 | – | 1.02 | – | 0.483 | – | 0.035
P8 Initial | – | 1.09 | – | 1.08 | – | 1.04 | – | 0.54 | – | 0.0315
P8 Relapse | – | 0.992 | – | 1.05 | – | 1.02 | – | 0.9355 | – | 0.0655
P10 Initial | – | 1.29 | – | 1.17 | – | 0.639 | – | 0.225 | – | 0.0835
P10 Relapse | – | 1.02 | – | 1.15 | – | 1.08 | – | 0.785 | – | 0.0695
P12 Initial | – | 1.05 | – | 0.991 | – | 0.58 | – | 0.337 | – | 0.0575
P12 Relapse | – | 0.277 | – | 1.52 | – | 0.199 | – | 0.048 | – | 0.0695

Cc1c(-c2ccc(N3CCc4cccc(C(=O)Nc5nc6ccccc6s5)c4C3)nc2C(=O)O)cnn1CC12CC3CC(CC(C3)C1)C2
normalised number of viable cells
Settings | 0.125 nM | 0.13 nM | 1 nM | 1.25 nM | 12.5 nM | 31.25 nM | 100 nM | 625 nM | 1250 nM | 10000 nM
P1 Initial | 1.07 | – | 0.741 | – | 0.429 | – | 0.38 | – | 0.172 | 0.0585
P1 Relapse | – | 1.092 | – | 1 | – | 0.758 | – | 0.443 | – | 0.104
P2 Initial | – | 0.972 | – | 0.785 | – | 0.5015 | – | 0.407 | – | 0.2125
P2 Relapse | – | 0.839 | – | 0.588 | – | 0.115 | – | 0.0705 | – | 0.0555
P6 Initial | – | 0.809 | – | 0.331 | – | 0.037 | – | 0.023 | – | 0.0205
P6 Relapse | – | 0.953 | – | 0.907 | – | 0.827 | – | 0.883 | – | 0.834
P8 Initial | – | 1.17 | – | 0.883 | – | 0.704 | – | 0.673 | – | 0.4885
P8 Relapse | – | 0.838 | – | 0.861 | – | 0.721 | – | 0.515 | – | 0.321
P10 Initial | – | 0.894 | – | 0.32 | – | 0.163 | – | 0.0735 | – | 0.031
P10 Relapse | – | 0.98 | – | 0.69 | – | 0.547 | – | 0.341 | – | 0.149
P12 Initial | – | 0.976 | – | 0.093 | – | 0.151 | – | 0.084 | – | 0.054
P12 Relapse | – | 2.48 | – | 0.433 | – | 0.132 | – | 0.075 | – | 0.0555

— the supplement of paper PMC12205070
